Reference: US4193913A, “Thermoplastic vinyl chloride polymers containing monoalkyl-tin-stabilizers” (priority 1978, dated 1980)

Experiments:
[1] = Heat stability, bulk-polymerised PVC at 0.15 g Sn/100 g PVC (Example 12); conditions: 0.3 part montan wax, 0.15 g of Sn/100 g of PVC
Experimental: (§1) A dry blend, consisting of 100 parts of suspension PVC, 0.5 part of montan wax, 1.0 part of monoglycerol ester and 1.0 part of organo-tin stabiliser according to the table below, is milled on a laboratory mill at 190° C. Every 5 minutes, an 0.3 mm thick piece of film is taken off to asist the discolouration.
Moulding materials consisting of 100 parts of bulk-polymerised PVC and 0.3 part of montan wax together with the organo-tin stabilisers according to the table which follows are examined for their heat stability, analogously to Example 11. The amounts of stabiliser are calculated to correspond to the use of 0.15 g of Sn/100 g of PVC.

[2] = Heat stability test on laboratory mill (Example 11); conditions: 190° C., 1.0 part stabiliser per 100 parts suspension PVC, 0.5 part montan wax, 1.0 part monoglycerol ester
Experimental: as §1

[3] = Milling test, plasticised suspension PVC (Example 14); conditions: 180° C., 0.5 part by weight stabiliser
Experimental: A mixture of 100 parts by weight of suspension PVC (K-value 71), 40 parts by weight of di-2-ethylhexyl phthalate, 0.3 part by weight of montan wax and 0.5 part by weight of octyl-tin tris-cetyl-thioglycollate, corresponding to 0.05 g of Sn/100 g of PVC, is milled on a laboratory mill at 180° C. until yellowing beings to occur.

[4] = Milling test, vinyl chloride/vinyl acetate copolymer (Example 13); conditions: 20 minutes at 180° C., 1.35 g stabiliser, 0.13 g of tin per 100 parts of copolymer
Source text: 100 parts of a vinyl chloride/vinyl acetate copolymer (vinyl acetate content 10%, K-value 60 to 61) are premixed with 0.5 part of montan wax, 1.0 part of monoglycerol ester and an organo-tin stabiliser of the formula C8 H17 Sn(SCH2 COO-n-C16 H33)3. The amount of organo-tin stabiliser (1.35 g) is so chosen that 0.13 g of tin are present per 100 parts of copolymer.

rats [5] = assay: Acute oral LD50 in rats; type: in vivo, rat; conditions: for acute oral LD50: rats of both sexes, oral intubation
Experimental: Compound III was weighed into an Erlenmeyer flask. It was diluted at 30 and 50% with carboxymethylcellulose and administered by oral intubation.
The compound was tested on 40 rats (20 males/20 females). They were 6 to 7 weeks old and weighed 160 to 180 g.
The males and females were segregated and housed in Macrolon cages in groups of 5 in a room kept at a constant temperature of 22 ±1° C. and a relative humidity of approximately 50%. They received water and food ad libitum. The rats were starved during one night before starting the treatment. The doses were 3170, 4640, 6000 and 10,000 mg/kg body weight.

rats [6] = assay: No effect level, 90-day dietary administration to rats with 28-day recovery; type: in vivo, rat; conditions: for no effect level (dietary concentration): diet
Experimental: Compound III was administered in the diet to groups of 30 (groups 2 and 3) and 40 (group 4) rats at concentrations of 300, 1000 and 3000 ppm respectively (equivalent to an average daily intake of 19, 62 and 179 mg/kg body weight), for not less than 90 days. Forty rats in the control group received the same diet but without the addition of Compound III.
Ten rats (5+5) from each of groups 1 (control) and 4 (3000 ppm) were retained without treatment for 28 days after the end of the main study, as a recovery experiment.

[7] = tin content of 49%; known stabiliser; cited from earlier work
[8] = Milling test, impact-modified suspension PVC (Example 15); conditions: 190° C.
Experimental: Experiment 1: A dry blend, consisting of 100 parts by weight of suspension PVC (K-value 58), 1.0 part by weight of wax ester and 0.2 part by weight of montan wax as the lubricant, 1.0 part by weight of acrylic resin as a processing aid, 12.0 parts by weight of MBS modifying resin, as an additive to improve impact strength, and 0.8 part by weight of methyl-tin tris-(myristyl-thioglycollate), corresponding to 0.09 part of tin, is milled on a laboratory mill at 190° C. Every 5 minutes, an 0.3 mm thick piece of film is removed to assess the discolouration.
Experiment 2: The above experiment is repeated with 1.1 parts by weight of the same stabiliser, corresponding to 0.13 part of tin. The very slight yellow discolouration in this case occurs after 20 minutes, and the light yellow discolouration after 25 minutes.

[9] = 300, 1000 and 3000 ppm in diet, not less than 90 days
[10] = 0.8 part by weight stabiliser, 0.09 part of tin (Experiment 1)
[11] = 1.1 parts by weight stabiliser, 0.13 part of tin (Experiment 2)

For “butyl-tin tris(alfyl(12)-thioglycollate) [Example 4]”, the “Time in minutes for which the films remain colourless” value [1] was 30 min.
For `CCCCCCCCCCCCOC(=O)C[S][Sn]([CH2]CCC)([S]CC(=O)OCCCCCCCCCCCC)[S]CC(=O)OCCCCCCCCCCCC` [Example 2, butyl-tin tris-(lauryl-thioglycollate)], the “Time in minutes for which the films remain colourless” value [1] was 25 min.
With “butyl:tin tris(alfyl(14)-thioglycollate) [Example 5]” the “Heat stability of the moulding material (time to recognisable colour change to light brown-yellow)” value [2] was 25 min.
For “octyl-tin tris(alfyl(14)-thioglycollate) [Example 9]”, the “Time in minutes for which the films remain colourless” value [1] was 35 min.
With `CCCCCCCCCCCCCCCCOC(=O)C[S][Sn]([CH2]CCCCCCC)([S]CC(=O)OCCCCCCCCCCCCCCCC)[S]CC(=O)OCCCCCCCCCCCCCCCC` [Example 10, octyl-tin tris-(cetyl-thioglycollate)] the “time until a very slight yellowing is just detectable” value ([3]; 0.05 g of Sn/100 g of PVC, 40 parts di-2-ethylhexyl phthalate) was 74 min, the “appearance of the mill hide after 105 minutes” value ([3]; 105 minutes) was “slightly yellow” and the “yellowing detectable after milling” value [4] was “only very slight yellowing is detectable”. For the same molecule, the “Heat stability of the moulding material (time to recognisable colour change to light brown-yellow)” value [2] was 25 min.
With `CCCCCCCCCCCCCCOC(=O)C[S][Sn]([CH2]CCCCCCC)([S]CC(=O)OCCCCCCCCCCCCCC)[S]CC(=O)OCCCCCCCCCCCCCC` [Compound III, n-C8 H17 Sn(SCH2 COO-n-C14 H29)3] the “mortality, acute test” value (rats [5]; 3170, 4640, 6000 and 10,000 mg/kg body weight, 14 days) was “No animal died”, the “autopsy findings, acute test” value (rats [5]; killed animals, 3170 to 10,000 mg/kg) was “no substance related gross organ changes were seen” and the acute toxicity grading (rats [5]; rat, oral) was “slight acute toxicity”. For the same molecule, the “acute oral LD50” value (rats [5]; 14 days) was “greater than 10,000 mg/kg”, the “clinical symptoms, 90-day diet study” value (rats [6]; [9]) was “no clinical symptoms were recorded” and the “deaths, 90-day diet study” value (rats [6]; [9]) was “No deaths occured”. For the same molecule, the “body weight gains, food consumption, laboratory parameters, organ weight data after recovery” value (rats [6]; group 4 (3000 ppm) versus control, 28 days recovery) was “no significant difference”, the “histopathological changes after recovery” value (rats [6]; group 4 (3000 ppm), 28 days recovery) was “No histopathological changes were seen” and the body weight gain (rats [6]; male rats, 3000 ppm, following day 14, versus untreated controls) was “gained less body weight than untreated controls”. The “body weights at termination of treatment” value (rats [6]; male rats, 3000 ppm, versus untreated control animals) was “slightly below those from untreated control animals”, the “no effect level (dietary concentration)” value (rats [6]; rats, not less than 90 days) was 3000 ppm and the “no effect level as average daily intake” value (rats [6]; rats, equivalent to 3000 ppm in diet, 129600 min) was 179 mg/kg body weight. For the same molecule, the feed consumption (rats [6]; top dose rats (3000 ppm)) was “decreased feed consumption”.
For `CCCCCCC[CH2][Sn]([CH2]CCCCCCC)([S]CC(=O)OCCCCCC(C)C)[S]CC(=O)OCCCCCC(C)C` [Compound I, (n-C8 H17)2 Sn(SCH2 COO-i-C8 H17)2, reference compound], the “acute oral LD50” value (rats [5]; 14 days) was 2000 mg/kg and the “no effect level (dietary concentration)” value (rats [6]; rats, not less than 90 days) was 25 ppm.
For `CCCCCCCCCCCCCCCCOC(=O)C[S][Sn]([CH2]CCC)([S]CC(=O)OCCCCCCCCCCCCCCCC)[S]CC(=O)OCCCCCCCCCCCCCCCC` [Example 3, butyl-tin tris-(cetyl-thioglycollate)], the “Time in minutes for which the films remain colourless” value [1] was 35 min.
With `CCCCCCC[CH2][Sn]([S]CC(=O)OCCCCCC(C)C)([S]CC(=O)OCCCCCC(C)C)[S]CC(=O)OCCCCCC(C)C` [Compound II, n-C8 H17 Sn(SCH2 COO-i-C8 H17)3, reference compound] the “acute oral LD50” value (rats [5]; 14 days) was 5000 mg/kg and the “no effect level (dietary concentration)” value (rats [6]; rats, not less than 90 days) was 500 ppm.
In the case of butylthiostannonic acid, the “stabiliser effect relative to tin content” value [7] is given as “relatively slight effect”.
With `CCCCCCCCCCCCCCOC(=O)C[S][Sn]([CH3])([S]CC(=O)OCCCCCCCCCCCCCC)[S]CC(=O)OCCCCCCCCCCCCCC` [Example 1, methyl-tin tris-(myristyl-thioglycollate)] the “milling time to reach a light yellow discolouration” value [8, 10] was 20 min, the “milling time to reach a very slight yellow discolouration” value [8, 10] was 15 min and the “milling time to light yellow discolouration” value [8, 11] was 25 min. For the same molecule, the “milling time to very slight yellow discolouration” value [8, 11] was 20 min and the “Heat stability of the moulding material (time to recognisable colour change to light brown-yellow)” value [2] was 25 min.
In the case of `CCC[CH2][Sn]([S]CC(=O)OCCCCCCCCCCCCCCCC(C)C)([S]CC(=O)OCCCCCCCCCCCCCCCC(C)C)[S]CC(=O)OCCCCCCCCCCCCCCCC(C)C` [Example 8, butyl-tin tris-(i-octadecyl thioglycollate)], the “Time in minutes for which the films remain colourless” value [1] is reported as 30 min.
